# Patent US8808715B1, “Methods and compositions for modulating keratinocyte function” (Georgia Regents Research Institute, Inc, priority 2004, dated 2014)
# Key:
# Type in all cases: cell-based, mouse
# keratin 10 promoter = experiment: Co-transfection analysis, keratin 10 promoter-luciferase reporter; details: 1 mM calcium, 24 hours
# Experimental: The keratin 5 and keratin 10 promoter-luciferase constructs were provided by of Dr. Bogi Andersen (University of California, Irvine, Calif.); the involucrin promoter-luciferase construct was provided by Dr. Daniel Bikle (University of California, San Francisco, Calif.). Sub-confluent (approximately 30%) keratinocytes were transfected using TransIT-Keratinocyte according to the manufacturer's instructions. After 24 hours cells were refed with medium containing 25 μM (control) or 1 mM-Ca^2+ for an additional 24 hours. Luciferase activity was then measured using the Dual Luciferase Reporter Assay kit (Promega, Madison, Wis.) as directed by the manufacturer.
# [1] = test system: primary epidermal keratinocytes; experiment: Radiolabeled phosphatidylglycerol formation in intact keratinocytes
# Experimental: Primary epidermal keratinocytes were prepared from 1-3-day old neonatal ICR mice after trypsin flotation of the skin and mechanical separation of the epidermis from the dermis. The epidermal cells were released by scraping, collected by centrifugation and plated in 6-well dishes in a medium consisting of MEM containing 25 μM calcium, 2% dialyzed fetal bovine serum, 2 mM glutamine, 5 ng/mL EGF, ITS (6.25 μg/mL insulin+6.25 μg/mL transferrin+6.25 ng/mL selenious acid+5.35 μg/mL linoleic acid+1.25% bovine serum albumin), 100 U/mL penicillin, 100 μg/mL streptomycin and 0.25 μg/mL fungizone. After an overnight incubation, the cells were refed with serum-free keratinocyte medium (SFKM), in which 2% dialyzed fetal bovine serum was replaced with 90 μg/mL bovine pituitary extract. Cells were refed with fresh medium every 1-3 days.
# For the PLD assay cultured primary keratinocytes were labeled for 20-24 hours with 2.5 μCi/ml [^3H] oleic acid. The cells were then exposed to vehicle or 100 nM PMA in the presence of 0.5% ethanol for 30 minutes. To measure the formation of radiolabeled phosphatidylglycerol, cells were treated for 24 hours with SFKM containing vehicle, 250 nM 1,25-dihydroxyvitamin D3 or 125 μM calcium and then labeled for an additional 30 minutes with 1-2.5 μCi/mL [^3H] or 0.4-0.5 μCi/mL [^14C]glycerol. For experiments investigating the extracellular calcium dependence of PG formation, cells were incubated for 24 hours in SFKM containing various calcium concentrations prior to the addition of 5 μCi/mL [^3H]glycerol for 30 minutes. In some cases, cells were stimulated with 25 μM calcium (control)—or 125 μM calcium-containing SFKM for 24 hours prior to the addition of [^14C]glycerol in the presence and absence of 1% ethanol. To measure phosphatidylglycerol formation in response to PMA, unlabeled cells were stimulated with 100 nM PMA in the presence of radiolabeled glycerol, as above. Reactions were terminated and the radiolabeled phosphatidylalcohol extracted, separated by thin-layer chromatography and quantified as described by Bollag (1998), referenced above.
# involucrin = experiment: Involucrin protein levels by western analysis; details: 24 hours; PG liposomes in 25 uM Ca2+ medium, or 125 uM Ca2+ alone; normalized to actin
# Experimental: FIGS. 15A-B illustrate that glycerol, but not xylitol or sorbitol, inhibits DNA synthesis and enhances the inhibitory effect of an elevated extracellular Ca^2+ concentration. (A) Near-confluent keratinocytes were incubated for 24 hours with 0.02 or 0.1% glycerol and DNA synthesis measured as the incorporation of [^3H] thymidine incorporation into DNA. (B) Near-confluent keratinocytes were incubated for 24 hours with the indicated concentrations of glycerol (G, squares) or equivalent concentrations of xylitol (X, circles) in SFKM containing 25 μM (control; open symbols) or 125 μM Ca^2+ (Ca^2+; closed symbols). […] [^3H]Thymidine incorporation into DNA was then determined. […] Luciferase activity was then measured using a Dual Luciferase kit as directed by the manufacturer. […] The blots were quantified using the Kodak molecular imaging software. […]
# PG was also examined for its ability to stimulate a marker of keratinocyte differentiation. Keratinocytes were treated with or without PG liposomes in 25 uM Ca^2+ (control) or 125 uM Ca^2+-containing medium for 24 hours and cell lysates were analyzed for involucrin protein levels (normalized to actin as a loading control) (FIG. 15E).
structure (smiles),measurement,setting,value
[Ca+2] [calcium],inhibition of keratin 10 expression (promoter activity),keratin 10 promoter,22%
same,radiolabeled PG formation relative to control cells,"[1]; 24 hours pretreatment (250 nM 1,25-dihydroxyvitamin D3 or 125 μM calcium), then [3H]glycerol 30 minutes",induced an increase in the subsequent production of PG
same,calcium concentration giving maximal stimulation of radiolabeled PG formation,"[1]; range 25 μM (control) to 1 mM, 24 hours, biphasic dose dependence",125 µM
same,"involucrin protein levels, each agent alone",involucrin,not significant effect
